Experimental findings from patent US10005720B2, “Compounds useful for the treatment of metabolic disorders and synthesis of the same” (NORTH CAROLINA CENTRAL UNIVERSITY, priority 2013, dated 2018) are described below.

“Also recorded” adds a separate entry of the source.

Series [1] relates to genes involved in lipid/energy metabolism. The experiment in a line: Gene chip microarray analysis of sham and drug treated liver. Format: in vivo, mouse. Particulars: treated vs sham liver. The text has this: The expression and proteomic studies were implemented with particular interest in lipid/energy metabolism pathways. […] We are also particularly interested in Car3, since this gene represents ˜30% of soluble protein in adipose tissue, goes up in adipocytes (˜2-fold) in response to high fat diet, but goes down in the liver dramatically in response to energetic starvation. Finally, Car3 is negatively regulated by insulin signaling and thus might reflect insulin sensitivity. FGF21 and Car3 are good biomarkers for liver function in response to metabolic changes.

Series [2] relates to C57-diet induced obesity (DIO) mouse model. The series can be described thus: Histological scoring of hepatic steatosis in the C57-DIO mouse model. Format: in vivo. Particulars: C57-DIO mice; for fatty liver phenotype / hepatic steatosis by liver histology (H&E): once-daily IP injection for 12 days, 10 mg/kg body weight. The text has this: The C57-diet induced obesity (DIO) mouse model was used in this study as a disease model for fatty liver disease and hepatic insulin resistance (FIG. 4). It was observed that eighty percent of the C57-DIO animals develop the fatty liver phenotype at 20-weeks, which highly correlates with insulin resistance penetrance and poor glycemic control. […] In humans, progressive accumulation of hepatic triglycerides is associated with metabolic syndrome/T2D and leads to impairment of insulin action in the liver. The two guiding phenotypic indicators of test compound efficacy in earlier studies were: histological scoring of hepatic steatosis, and intraperitoneal (IP) glucose tolerance.
Singly housed mice raised on a 60%-fat diet (20-week old males purchased from Sax labs) with extensive fatty liver were treated with the test compound for 12 days via daily intraperitoneal injection (IP). […] In addition, coats of treated animals were drier (FIG. 4B vs. C), consistent with reduction in triglycerides (also observed in the DGAT1 mouse knockout with dry coat).
During initial animal screening, we developed a quantitative histomorphometry platform software using components of the open-source CellProfiler software for automatically quantifying/scoring liver lipid content through lipid droplet detection in entire liver sections. In brief, entire H&E liver slides are scanned at 400× total magnification using an Aperio ScanScope slide scanner. For automated lipid phenotyping, we 1) detect entire pieces of tissue, 2) identify individual lipid droplets based on size and shape and, 3) measure mean droplet size and droplet density per […]. This automated quantitation of liver lipid phenotype, supervised and verified by a trained veterinary pathologist (PI Yi), offers an unbiased and simple method for comparing compound effects. Results from manual scoring of average degree of steatosis in cohorts are; Sham-90%, B127443-27% and are in good agreement with machine-aided scoring results as shown in FIG. 6.

A further series concerns CAR3. The experiment in a line: CAR3 level in liver of treated mice (Western blot, 2D-DiGE). Format: in vivo, mouse. The text has this: (§1) The expression and proteomic studies were implemented with particular interest in lipid/energy metabolism pathways.
For series [3], the system named is C57-diet induced obesity mouse model. The experiment in a line: Intraperitoneal glucose tolerance testing (IP-GTT) in C57-DIO mice. Format: in vivo. As to the method: Glucose tolerance testing (IP-GTT) was performed via an IP injection of a 10% glucose solution at […] body weight within a 10 mL/kg body weight volume. Blood glucose was monitored pre and post injection at 15-minute intervals for 60 minutes using a standard glucometer. IP-GTT was chosen over oral GTT to bypass gut hormone signaling (GLP-1) for a more direct assessment of hepatic insulin resistance. IPGTT was performed on animals both prior to and after the 12-day test compound administration period to glean both individual animal responses and cohort averaged responses.

In another series the test system is FGF21. The series can be described thus: FGF21 expression in liver of treated C57-DIO mice (Western blot, qPCR, microarray). Format: in vivo, mouse.
Description: as §1

The mark [4] stands for this setting: drug treated at 10 mg/kg vs. vehicle.
Where [5] appears, read: trials on large numbers of mice.

As for `O=C(Nc1ccc([N+](=O)[O-])cc1Cl)c1cc(Cl)ccc1O` [Example B-127443, Niclosamide], in series [1], the “expression of genes involved in lipid/energy metabolism (FGF21, Fitm1, Fitm2, CideC, Cyp7A1, chn)” value is listed as “significantly changed the expression of many genes involved in lipid/energy metabolism”. The “fatty liver phenotype / hepatic steatosis by liver histology (H&E)” value in series [2] (10 mg/kg) was “dramatic therapeutic effects; also recorded: reversal of fatty phenotype”; in series [2] (listed as B127443, 10 mg/kg) it was “efficacious; also recorded: robust responses”. The “average degree of steatosis in cohorts, manual scoring” value in series [2] (Sham 90%) was determined as 27%. Besides, the “CAR3 in liver, Western blot” value in the series on CAR3 (setting [4]) is on record as “significant reduction”. In addition, the “CAR3 protein level in liver, comparative proteomics (2D-DiGE)” value with CAR3 (livers of treated mice) is reported as “significantly lower levels of CAR3 protein”. Also, the Car3 expression result with CAR3 (setting [5]) is reported as “decreasing”. In addition, in series [3] (12-day treatment with 5 mg/kg, Animals 1,3), the “glucose tolerance (IP-GTT), individual animals before and after treatment” value is recorded as “improved glucose tolerance”. Further, the “glucose tolerance (IP-GTT)” value in series [3] (12-day treatment, 10 mg/kg, cohort average (n=6) vs sham, 10 mg/kg) is reported as “markedly improved; also recorded: marked improvement in glucose tolerance”. Besides, in the series on FGF21 (setting [4]), the “FGF21 expression in liver, Western blot” value was “stimulation”. For the same compound, the FGF21 expression result with FGF21 (setting [5]) is “increases”.
